Reference: publication PMC10708960 (Computational and Structural Biotechnology Journal, 2023)

Columns and labels:
c-Met = settings: no reference given; cited from earlier work
[1] = tested on: c-Met mutations of D1228 and Y1230; settings: cited from earlier work; for affinity against mutations of D1228 and Y1230: type I inhibitors, Fig. S10
c-Src = c-Src (Gallus gallus, UniProt P00523); assay: biochemical; set-up: species or system Chicken
[2] = tested on: c-Met mutations of L1195 and F1200; settings: type I inhibitors; Fig. S10; cited from earlier work
c-Met F1200I mutant = settings: Fig. S10; cited from earlier work

SMILES | affinity against mutations of D1228 and Y1230 [1] | activity against mutations of L1195 and F1200 [2] | also measured
C[C@H]1CNC(=O)c2cnn3ccc(nc23)N[C@H](C)c2cc(F)ccc2O1 [TPX-0005] |  |  | affinity for c-Met (c-Met): low affinity
COc1cc2nccc(Oc3ccc(NC(=O)C4(C(=O)Nc5ccc(F)cc5)CC4)cc3)c2cc1OC [cabozantinib] |  |  | ability to overcome mutations of D1228 and Y1230 ([1]; type II inhibitor): could overcome
CCN1Cc2c(ccc(F)c2C#N)O[C@@H](C)CNC(=O)c2c(N)nn3ccc1nc23 [TPX-0022] |  |  | IC50 (c-Src): 3.7 nM
C[C@@H](c1ccc2nccn2c1)n1nnc2ncc(-c3cnn(C)c3)nc21 [savolitinib] | low affinity | potent activity | 
C[C@@H](Oc1cc(-c2cnn(C3CCNCC3)c2)cnc1N)c1c(Cl)ccc(F)c1Cl [crizotinib] |  |  | potency for the F1200I mutant (c-Met F1200I mutant): 50 to 200 nM
CN1CCC(COc2cnc(-c3cccc(Cn4nc(-c5cccc(C#N)c5)ccc4=O)c3)nc2)CC1 [tepotinib] | low affinity | potent activity | 
CNC(=O)c1ccc(-c2cnc3ncc(Cc4ccc5ncccc5c4)n3n2)cc1F [capmatinib] | low affinity | potent activity | 
